{
  "source": "patent US20230242887A1",
  "about": "“ONCOLYTIC VIRUS CARRYING E-CADHERIN AND USES THEREOF” (Ohio State Innovation Foundation, priority 2017, published 2023)",
  "key": {"OV-Q1": {"tested_on": "OV-Q1", "test": "Viral replication inhibition assay (HSV-1 genome copies by real-time PCR)", "assay_type": "cell-based", "details": "Human alphaherpesvirus 1, GLI36, 48 h, read-out: IC50 of inhibition of OV-Q1 replication", "description": "(§1) FIGS. 12A-12B illustrate the safety test for OV-CDH1. FIG. 12(A) illustrates that Gli36 cells were infected with OV-Q1 or OV-CDH1 at a MOI of 5. Two hours after infection, the infection media were replaced with fresh media with increasing concentrations of Acyclovir. Forty-eight hours after infection, the cells were harvested for DNA extraction. The HSV-1 genome copy numbers in OV-Q1 and OV-CDH1 infected cells were measured by real-time PCR with primers and a probe against gD. The copy number vs. dose curves were established to evaluate the inhibitory effect of Acyclovir against oHSV replication (n=3). FIG. 12(B) illustrates survival curves of BLAB/c mice treated with wild-type HSV-1 (F strain), OV-Q1 or OV-CDH1 at the dose of 1×10^6 via i.c. or i.v injections.\n(§2) OV-Q1 and OV-CDH1 both carry the HSV-1 TK gene, which makes the viruses sensitive to the antiviral acyclovir and its derivatives. […] For evaluating the in vivo safety of OV-CDH1, BALB/c mice were intravenously (i.v.) or i.c. injected with wild-type HSV-1 (F strain), OV-Q1, or OV-CDH1 at the dose of 1×10^6 PFU, which is the maximum dose due to the limited administration volume for i.c. injection. […] Mice treated with OV-Q1 and OV-CDH1 through i.v. or i.c. injections all survived over 4 weeks until they were euthanized and not monitored further (FIG. 12B). […]"}, "OV-CDH1": {"tested_on": "OV-CDH1", "test": "Viral replication inhibition assay (HSV-1 genome copies by real-time PCR)", "assay_type": "cell-based", "details": "Human alphaherpesvirus 1; Gli36 cells, MOI of 5, 48 h", "description": "as §1, §2"}},
  "note": "pIC50: −log10 of the molar value.",
  "data": [
    {"smiles": "Nc1nc2c(ncn2COCCO)c(=O)[nH]1", "note": "[acyclovir]", "values": [
      {"measurement": "pIC50", "setting": "OV-Q1", "value": 5.78},
      {"measurement": "pIC50", "setting": "OV-CDH1", "value": 5.57}
    ]}
  ]
}
